“Also recorded” adds a separate entry of the source.
B1: purified IFN gamma: purified interferon gamma, cytokine (protein, UniProt P01579 24-161, looked up)
Interferon gamma: QDPYVKEAENLKKYFNAGHSDVADNGTLFLGILKNWKEESDRKIMQSQIVSFYFKLFKNFKDDQSIQKSVETIKEDMNVKFFNSNKKKRDDFEKLTNYSVTDLNVQRKAIHELIQVMAELSPAAKTGKRKRSQMLFRG

Columns and labels:
Type in all cases: cell-based
HeLa-RIP3^− cells = conditions: Birinapant 5 μM or 30 μM, 48 hours
Description: HeLa-RIP3^− cells (250,000/well) cells were plated in six-well plates 24 hours prior to infection. ASN-002 infections were performed in serum-free medium at multiplicities of infection (MOI) of 10. Two doses of Fluorouracil were co-administered with viruses, and cell death kinetics was analyzed over the period of 3 days.
HeLa-RIP3^− cells (250,000/well) cells were plated in six-well plates 24 hours prior to infection. ASN-002 infections were performed in serum-free medium at multiplicities of infection (MOI) of 10. Two doses of chemotherapeutic agents were co-administered with viruses, and cell death kinetics was analyzed over the period of 3 days.

[1] = system: HeLa-RIP3^− or HeLa-RIP3^+ cells; test: Dose response for chemotherapeutic agents, cell viability by trypan blue exclusion; conditions: 48 hour exposure; for EC50: read-out: ED50 at 48 hours (cell death)
Description: HeLa-RIP3^− or HeLa-RIP3^+ cells (250,000/well) were seeded in six-well plates in complete DMEM medium, and after 24 hours, cells were treated with multiple doses of Fluorouracil. Cell viability was determined 48 hours post treatment via trypan blue exclusion analysis.
HeLa-RIP3^− or HeLa-RIP3^+ cells (250,000/well) were seeded in six-well plates in complete DMEM medium, and after 24 hours, cells were treated with multiple doses of the Trabectedin, Birinapant, or Cisplatin. Cell viability was determined 48 hours post treatment via trypan blue exclusion analysis.

[2] = system: HeLa (RIP3^+/necroptosis-competent) cells; test: Cell death in the presence of inhibitors of apoptosis and necroptosis; conditions: for cell death: no inhibitor, Trabectedin 2.5 nM (alone or plus AdCMV-NULL); for cell death in the presence of zVAD: pan caspase inhibitor zVAD 50 μM
Description: In order to understand which of several possible cell death pathways are activated by Fluorouracil or ASN-002 treatment alone and in combination, experiments were carried out with these agents in the presence of inhibitors of apoptosis and/or necroptosis in HeLa (RIP3^+/necroptosis-competent) cells.
(§1) In order to understand which of several possible cell death pathways are activated by Trabectedin treatment alone and in combination with IFN gamma (virus expressed or exogenously added), experiments were carried out with these agents, alone or in combination, in the presence of inhibitors of apoptosis and/or necroptosis inhibitors in both HeLa (RIP3^+/necroptosis-competent) cells and HeLa (RIP3^−/necroptosis-deficient) cells.

[3] = system: RIP3^− (necroptosis-deficient) HeLa cells; test: Cell death in the presence of a pan caspase inhibitor of apoptosis; conditions: for cell death: no inhibitor, Trabectedin alone or plus AdCMV-NULL
Description: In follow-up experiments, RIP3^− (necroptosis-deficient) HeLa cells were subjected to the same treatments as described above.
as §1

HeLa-RIP3^+ cells = test: Induction of cell death by TNF alpha in the presence of cycloheximide and pan caspase inhibitor zVAD, trypan blue exclusion; conditions: TNF alpha 50 ng/ml in the presence of cycloheximide (250 ng/ml) plus zVAD (50 μM); relative to untreated cells
Description: HeLa-RIP3 cells (250,000/well) were plated in six-well plates 24 hours prior to treatment with TNF alpha and cycloheximide (TCZ treatment). Cells were pre-treated with CHX (250 ng/ml) and the pan caspase inhibitor zVAD (50 μM) one hour before TNF alpha (50 ng/ml) treatment. Cell viability was determined after 12-15 hours by trypan blue exclusion analysis.

HeLa (RIP3^−) cells = test: Induction of cell death by TNF alpha, trypan blue exclusion; conditions: TNF alpha 50 ng/ml; under any condition; 12-15 hours
[4] = Fluorouracil 10 μM, Trabectedin 2.5 nM

Row | Molecule | EC50 [1] [µM] | cell death ([2]; Fluorouracil 10 μM) | cell death in the presence of zVAD [2, 4] | cell death in the presence of zVAD relative to treatment without inhibitor [3] | cell death [3] [%] | further results
1 | CC[C@H](NC(=O)[C@H](C)NC)C(=O)N1C[C@@H](O)C[C@H]1Cc1c(-c2[nH]c3cc(F)ccc3c2C[C@@H]2C[C@H](O)CN2C(=O)[C@H](CC)NC(=O)[C@H](C)NC)[nH]c2cc(F)ccc12 [Birinapant] | ~30 |  |  |  |  | cell death in combination with control adenovirus (Ad-CMV-NULL) relative to agent alone (HeLa-RIP3^− cells): same level of cell death as Birinapant alone; also recorded: indistinguishable from that induced by Birinapant alone
2 | N.N.[Cl][Pt][Cl] [Cisplatin] |  |  |  |  |  | ED50 at 48 hours (cell death) [1]: ~10 µg/mL
3 | O=c1[nH]cc(F)c(=O)[nH]1 [Fluorouracil] | ~50 | approximately 35% | about 80% | slightly lower |  | cell death in the presence of Necrosulfonamide (NSA) ([2]; necroptosis inhibitor NSA 1 μM, Fluorouracil 10 μM): 45%
4 | COc1cc2c(cc1O)CCN[C@]21CS[C@@H]2c3c(OC(C)=O)c(C)c4c(c3[C@H](COC1=O)N1[C@@H]2[C@H]2c3c(cc(C)c(OC)c3O)C[C@@H]([C@@H]1O)N2C)OCO4 [Trabectedin] | ~0.01 | approximately 35% | about 95% |  | 33 | cell death in the presence of NSA relative to treatment without inhibitor ([2]; NSA): slightly lower; cell death in the presence of both zVAD and NSA ([2]; zVAD plus NSA, Fluorouracil 10 μM, Trabectedin 2.5 nM): about 60%; cell death in the presence of zVAD ([3]; pan caspase inhibitor zVAD): 87%
5 | TNF alpha |  |  |  |  |  | cell death (HeLa-RIP3^+ cells): about 70%; induction of cell death (HeLa (RIP3^−) cells): failed to induce cell death
6 | B1 |  | ~30% |  | marked, though not complete, rescue of cell death | ~30 | cell death in the presence of zVAD relative to treatment without inhibitor ([3]; listed as IFN gamma): significantly reduced cell death

Source: US11273170B2, “Methods of treating cancer” (Ascend Biopharmaceuticals Ltd, priority 2016, dated 2022)
